Laboratory results: patent US9018135B2, “Pesticidal compositions” (Syngenta Participations AG, priority 2010, dated 2015)
Read-outs that look alike come from different tables or passages of the source.

How the values were obtained:
[1] = test system: Nilaparvata lugens (brown plant hopper, BPH); test: Activity against Nilaparvata lugens (brown plant hopper, BPH) on sprayed rice plants, % mortality (Abbott); type: in vivo; settings: 168 h
Method: Eight replicates (pots with rice plants) were sprayed with respective test solutions. Test solutions contained the formulated test compound and the PGR Moddus® at different ratios. 4 pots were infested with plant hopper nymphs right after application. 7d after application BPH mortality and phytotoxicity were evaluated.

[2] = test system: Rhopalosiphum padi (cereal aphid); test: Activity against Rhopalosiphum padi (cereal aphid) on sprayed wheat plants, % mortality (Abbott)
From the text: Activity Against Rhopalosiphum padi (Cereal Aphid) and Crop Safety
The experiment was divided into two parts, one half of the plants was used for the aphid bioassay the other half was not infested with aphids and kept for plant growth evaluation. One replicate consisted of 4 wheat plants per pot. 5 replicates were infested with a mixed population of cereal aphids 6 days after seeding. 9 days after seeding all wheat plants (10 replicates) were sprayed with respective test solutions. Test solutions contained the formulated test compound (25 ppm), the adjuvant Mero (0.1% v/v), and the plant growth regulator (PGR) CCC (chlormequat-chloride, Cyclocel®) or trinexapac ethyl (Moddus®). 6 and 17d after application aphid mortality and phytotoxicity were evaluated. Efficacy was calculated with the aid of Abbott's formula. Assessment on phytotoxicity was done by counting the number of leaves bent down due to necrosis per pot. Additionally the average plant height per replicate was measured.

Row | SMILES | melting point | further results
1 | CCOC(=O)OC1=C(c2c(C)cc(C)cc2C)C(=O)N(C)C12CCN(OC)CC2 [P1.2, Carbonic acid ethyl ester 8-methoxy-1-methyl-2-oxo-3-(2,4,6-trimethyl-phenyl)-1,8-diaza-spiro[4.5]dec-3-en-4-yl ester] |  | mortality at 12.5 ppm ([1]; 12.5 ppm AI with Moddus, ratio AI:PGR 0.9:1, 7 d after application, read-out: Efficacy (% mortality) against brown plant hopper (Nilaparvata lugens)): 5%; mortality at 12.5 ppm ([1]; 12.5 ppm AI, no PGR, 7 d after application, read-out: Efficacy (% mortality) against brown plant hopper (Nilaparvata lugens)): 65%; mortality at 25 ppm ([1]; 25 ppm AI with Moddus, ratio AI:PGR 1.9:1, 7 d after application, read-out: Efficacy (% mortality) against brown plant hopper (Nilaparvata lugens)): 10%; mortality at 25 ppm ([1]; 25 ppm AI, no PGR, 7 d after application, read-out: Efficacy (% mortality) against brown plant hopper (Nilaparvata lugens)): 37%; mortality at 50 ppm ([1]; 50 ppm AI with Moddus, ratio AI:PGR 1.25:1, 7 d after application, read-out: Efficacy (% mortality) against brown plant hopper (Nilaparvata lugens)): 33%; mortality at 50 ppm ([1]; 50 ppm AI, no PGR, 7 d after application, read-out: Efficacy (% mortality) against brown plant hopper (Nilaparvata lugens)): 62%; mortality at 100 ppm ([1]; 100 ppm AI with Moddus, ratio AI:PGR 7.5:1, 7 d after application, read-out: Efficacy (% mortality) against brown plant hopper (Nilaparvata lugens)): 77%; mortality at 100 ppm ([1]; 100 ppm AI, no PGR, 7 d after application, read-out: Efficacy (% mortality) against brown plant hopper (Nilaparvata lugens)): 80%; mortality at 200 ppm ([1]; 200 ppm AI with Moddus, ratio AI:PGR 15:1, 7 d after application, read-out: Efficacy (% mortality) against brown plant hopper (Nilaparvata lugens)): 87%; mortality at 200 ppm ([1]; 200 ppm AI, no PGR, 7 d after application, Abbott, read-out: Efficacy (% mortality) against brown plant hopper (Nilaparvata lugens)): 90%; Efficacy (% mortality) against cereal aphids (Rhopalosiphum padi), 6 DAA ([2]; test compound 25 ppm + Mero 0.1% v/v, tank mix with PGR Cycocel, ratio AI:PGR 1:20, 6 DAA): 97%; Efficacy (% mortality) against cereal aphids (Rhopalosiphum padi), 17 DAA ([2]; test compound 25 ppm + Mero 0.1% v/v, tank mix with PGR Cycocel, ratio AI:PGR 1:20, 17 DAA): 93%; Efficacy (% mortality) against cereal aphids (Rhopalosiphum padi), 6 DAA ([2]; test compound 25 ppm + Mero 0.1% v/v, tank mix with PGR Moddus, ratio AI:PGR 1:10, 6 DAA): 94%; Efficacy (% mortality) against cereal aphids (Rhopalosiphum padi), 17 DAA ([2]; test compound 25 ppm + Mero 0.1% v/v, tank mix with PGR Moddus, ratio AI:PGR 1:10, 17 DAA): 90%; Efficacy (% mortality) against cereal aphids (Rhopalosiphum padi), 6 DAA ([2]; test compound 25 ppm + adjuvant Mero 0.1% v/v, no PGR, 6 days after application, Abbott): 97%; Efficacy (% mortality) against cereal aphids (Rhopalosiphum padi), 17 DAA ([2]; test compound 25 ppm + adjuvant Mero 0.1% v/v, no PGR, 17 days after application, Abbott): 70%
2 | CON1CCC2(CC1)C(O)=C(c1cc(C)ccc1C)C(=O)N2C | 121 to 123 °C | 
3 | COCON1C(=O)C(c2cc(C)ccc2C)=C(OC)C12CCN(OC)CC2 | 91 to 93 °C | 
4 | COCON1C(=O)C(c2cc(Br)c(F)cc2C)=C(O)C12CCN(OC)CC2 | 64 to 67 °C | 
5 | CCOC(=O)OC1=C(c2cc(C)c(C)cc2Br)C(=O)N(C)C12CCN(OC)CC2 | 158 to 159 °C | 
6 | CCOC(=O)OC1=C(c2c(C)cc(C)cc2C)C(=O)N(CC)C12CCN(OC)CC2 | 101 to 103 °C | 
7 | CON1CCC2(CC1)C(O)=C(c1cc(C)c(C)cc1Cl)C(=O)N2C | 191 to 192 °C | 
8 | CON1CCC2(CC1)C(O)=C(c1cc(Br)c(C)cc1C)C(=O)N2C | 182 to 183 °C | 
9 | CON1CCC2(CC1)C(O)=C(c1c(C)cc(C)cc1C)C(=O)N2CC1CC1 | 223 to 225 °C | 
10 | CCOC(=O)OC1=C(c2cc(C)ccc2C)C(=O)N(C)C12CCN(OC)CC2 | 96 to 110 °C | 
11 | CCOC(=O)OC1=C(c2c(F)ccc(C)c2Cl)C(=O)N(OCOC)C12CCN(OC)CC2 | 116 to 119 °C | 
12 | COCON1C(=O)C(c2cc(C)ccc2C)=C(OC(=O)CC(C)(C)C)C12CCN(OC)CC2 | 93 to 95 °C | 
13 | CCOC(=O)OC1=C(c2c(C)cc(Cl)cc2C)C(=O)N(C)C12CCN(OC)CC2 [P1.29] |  | mortality at 12.5 ppm ([1]; read-out: Efficacy (% mortality) against brown plant hopper (Nilaparvata lugens), 12.5 ppm AI with Moddus, ratio AI:PGR 0.9:1, 7 d after application): 80%; mortality at 12.5 ppm ([1]; read-out: Efficacy (% mortality) against brown plant hopper (Nilaparvata lugens), 12.5 ppm AI, no PGR, 7 d after application): 98%; mortality at 25 ppm ([1]; read-out: Efficacy (% mortality) against brown plant hopper (Nilaparvata lugens), 25 ppm AI with Moddus, ratio AI:PGR 1.9:1, 7 d after application): 97%; mortality at 25 ppm ([1]; read-out: Efficacy (% mortality) against brown plant hopper (Nilaparvata lugens), 25 ppm AI, no PGR, 7 d after application): 98%; mortality at 50 ppm ([1]; read-out: Efficacy (% mortality) against brown plant hopper (Nilaparvata lugens), 50 ppm AI with Moddus, ratio AI:PGR 1.25:1, 7 d after application): 98%; mortality at 50 ppm ([1]; read-out: Efficacy (% mortality) against brown plant hopper (Nilaparvata lugens), 50 ppm AI, no PGR, 7 d after application): 100%; mortality at 100 ppm ([1]; read-out: Efficacy (% mortality) against brown plant hopper (Nilaparvata lugens), 100 ppm AI with Moddus, ratio AI:PGR 7.5:1, 7 d after application): 100%; mortality at 100 ppm ([1]; read-out: Efficacy (% mortality) against brown plant hopper (Nilaparvata lugens), 100 ppm AI, no PGR, 7 d after application): 100%; mortality at 200 ppm ([1]; read-out: Efficacy (% mortality) against brown plant hopper (Nilaparvata lugens), 200 ppm AI with Moddus, ratio AI:PGR 15:1, 7 d after application): 100%; mortality at 200 ppm ([1]; read-out: Efficacy (% mortality) against brown plant hopper (Nilaparvata lugens), 200 ppm AI, no PGR, 7 d after application, Abbott): 100%
14 | CON1CCC2(CC1)C(O)=C(c1cc(C)c(C)cc1C)C(=O)N2C | 183 to 186 °C | 
15 | CCOC(=O)OC1=C(c2cc(C)c(C)cc2Cl)C(=O)N(C)C12CCN(OC)CC2 | 149 to 150 °C | 
16 | CON1CCC2(CC1)C(O)=C(c1cc(C)c(C)cc1Br)C(=O)N2C | 191 to 193 °C | 

Further lines, with some results ahead:

Row | melting point | SMILES | further results
17 | 63 to 64 °C | COCCON1C(=O)C(c2cc(Br)c(C)cc2C)=C(O)C12CCN(OC)CC2 | 
18 | 86 to 87 °C | CON1CCC2(CC1)C(O)=C(c1cc(Br)c(C)cc1C)C(=O)N2OC | 
19 | 169 to 172 °C | CON1CCC2(CC1)C(O)=C(c1c(C)cc(C)cc1C)C(=O)N2OCC1CCCCC1 | 
20 | 135 to 137 °C | CON1CCC2(CC1)C(O)=C(c1c(C)cc(C)cc1C)C(=O)N2OCCOC1CCCCO1 (centres unmarked) | 
21 | 218 to 221 °C | CCN1C(=O)C(c2c(C)cc(C)cc2C)=C(O)C12CCN(OC)CC2 | 
22 | 88 to 92 °C | CON1CCC2(CC1)C(O)=C(c1c(C)cc(Cl)cc1C)C(=O)N2OC | 
23 | 137 to 139 °C | CON1CCC2(CC1)C(O)=C(c1c(C)cc(Cl)cc1C)C(=O)N2OC1CCCO1 (centres unmarked) | 
24 | 155 to 158 °C | COCON1C(=O)C(c2c(F)ccc(C)c2Cl)=C(O)C12CCN(OC)CC2 | 
25 | 122 to 125 °C | CCOC(=O)OC1=C(c2c(C)cc(Cl)cc2C)C(=O)N(OC)C12CCN(OC)CC2 | 
26 | 161 to 164 °C | COCCON1C(=O)C(c2c(C)cc(Cl)cc2C)=C(O)C12CCN(OC)CC2 | 
27 | 128 °C (dec.) | COCON1C(=O)C(c2c(C)cc(-c3ccc(Cl)cc3)cc2C)=C(O)C12CCN(OC)CC2 | 
28 | 71 to 74 °C | COCCON1C(=O)C(c2cc(Br)c(F)cc2C)=C(O)C12CCN(OC)CC2 | 
29 | 176 to 178 °C | COCON1C(=O)C(c2c(C)cc(Cl)cc2C)=C(O)C12CCN(OC)CC2 | 
